In PubChem BioAssay (NCI):
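Exposure lasted 48 hours, with cells grown in 96-well plates and compounds tested at five concentrations. GI50: concentration for 50% inhibition of growth. TGI: total growth inhibition.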

Assays:
Assay in all cases: NCI anticancer screen, dose series, 48 h
OVCAR-3 ovarian = tested on: OVCAR-3 ovarian
DU-145 prostate = tested on: DU-145 prostate
MDA-MB-435 = tested on: MDA-MB-435
MCF7 breast = tested on: MCF7 breast
CAKI-1 renal = tested on: CAKI-1 renal
SN12C renal = tested on: SN12C renal
EKVX NSCLC = tested on: EKVX NSCLC
SF-268 CNS = tested on: SF-268 CNS
RPMI-8226 leukemia = tested on: RPMI-8226 leukemia
MDA-N = tested on: MDA-N

Row | Structure (SMILES) | TGI (OVCAR-3 ovarian) | TGI (DU-145 prostate) | TGI (MDA-MB-435) | TGI (MCF7 breast) | TGI (CAKI-1 renal) | TGI (SN12C renal) | TGI (EKVX NSCLC) | TGI (SF-268 CNS) | TGI (RPMI-8226 leukemia) | TGI (MDA-N) | GI50 (OVCAR-3 ovarian) | GI50 (MCF7 breast) | GI50 (CAKI-1 renal) | GI50 (SN12C renal) | GI50 (EKVX NSCLC) | GI50 (SF-268 CNS) | GI50 (RPMI-8226 leukemia) | GI50 (DU-145 prostate) | GI50 (MDA-MB-435)
1 | CC1=NN(c2nc(N)nc(CO)n2)C(C)(C)C1 | > 100 µM | > 100 µM | > 100 µM | > 100 µM | > 100 µM | > 100 µM | > 100 µM | > 100 µM | > 100 µM | – | – | – | – | – | – | – | – | – | –
2 | Nc1nc(SCc2ccccc2Cl)c2ncn(C3OC(CO)C(O)C3O)c2n1 (stereo not given) | > 100 µM | – | – | – | > 100 µM | > 100 µM | – | > 100 µM | > 100 µM | – | – | – | – | – | – | – | – | – | –
3 | CC(=O)Oc1ccc2cc(Oc3cc(Cl)c(Cl)cc3Cl)c(=O)oc2c1 | 31.6 µM | > 100 µM | – | 67.7 µM | 33.6 µM | 28.1 µM | 71.9 µM | > 100 µM | – | 30.6 µM | – | – | – | – | – | – | – | – | –
4 | [CH3][Sn]([CH3])([CH3])[S]C(=S)N1CCOCC1 | 1.32 µM | – | – | 0.619 µM | > 46.4 µM | > 100 µM | > 100 µM | > 100 µM | 2.22 µM | – | 331 nM | 34.2 nM | 4 µM | 7.55 µM | 4.96 µM | 3.65 µM | 362 nM | – | –
5 | C[N+]1(C)CCCC(C#N)(c2ccccc2)CC1 (stereo not given) | – | > 100 µM | – | > 100 µM | > 100 µM | – | > 100 µM | > 100 µM | > 100 µM | > 100 µM | – | – | – | – | – | – | – | – | –
6 | CN(C)C(=O)C(F)(F)C(c1ccccc1Br)C1C(=O)N(C)C(=O)N(C)C1=O (stereo not given) | > 100 µM | > 100 µM | > 100 µM | > 100 µM | > 100 µM | – | > 100 µM | > 100 µM | > 100 µM | – | – | – | – | – | – | – | – | – | –
7 | C/C(=C\C(=O)Nc1ccc2n[nH]nc2c1)Nc1ccc2n[nH]nc2c1 | > 100 µM | – | – | – | > 100 µM | > 100 µM | > 100 µM | > 100 µM | > 100 µM | – | – | – | – | – | – | – | – | – | –
8 | CO[C@@]12C[C@H](CNC(=O)c3ccc[nH]3)O[C@@H]1NC(=O)N2 | > 100 µM | > 100 µM | > 100 µM | > 100 µM | > 100 µM | > 100 µM | > 100 µM | > 100 µM | > 100 µM | – | – | – | – | – | – | – | – | – | –
9 | COC(=O)c1ccccc1CC1Cc2c(C)ccc(C)c2C1=O (stereo not given) | > 100 µM | > 100 µM | 59.7 µM | 30 µM | > 100 µM | > 100 µM | > 100 µM | > 100 µM | – | – | – | – | – | – | – | – | – | – | –
10 | COc1ccc(OC)c2c(C(C)=O)cccc12 | > 100 µM | > 100 µM | – | > 100 µM | – | > 100 µM | > 100 µM | > 100 µM | > 100 µM | – | – | – | – | – | – | – | – | – | –
11 | Clc1cc(N/N=C(\c2ccccc2)c2ccccn2)ncn1 | > 100 µM | > 100 µM | > 100 µM | – | 0.235 µM | – | > 100 µM | > 100 µM | 1.92 µM | > 100 µM | – | – | – | – | – | – | – | – | –
12 | Cc1c2cc[n+](Cc3ccc(I)cc3)cc2c(C)c2c1[nH]c1ccccc12 | 3.72 µM | – | – | 3.06 µM | 3.51 µM | > 25 µM | 7.85 µM | 7.18 µM | 2.4 µM | – | – | – | – | – | – | – | – | – | –
13 | O=C(Nc1cccc(-n2ccc3c(NC(=O)c4ccccc4)ncnc32)c1)Nc1ccc(Cl)c(C(F)(F)F)c1 | 8.9 µM | 11.3 µM | 5.6 µM | 6.14 µM | 10.9 µM | 9.86 µM | 9.84 µM | 10.5 µM | 2.8 µM | – | 2620 nM | 1490 nM | 2.04 µM | 3.09 µM | 2.71 µM | 3.69 µM | 1020 nM | 4.52 µM | 1440 nM
14 | Cc1ccc(/C=c2\cc3oc(=O)c4cccc(c4-3)c2=O)cc1 | > 100 µM | > 100 µM | > 100 µM | > 100 µM | > 100 µM | > 100 µM | > 100 µM | > 100 µM | > 100 µM | – | – | – | – | – | – | – | – | – | –
15 | CSc1c(C(C)=O)c(O)n(-c2ccc(C)cc2)c(=O)c1C#N | > 100 µM | > 100 µM | > 100 µM | > 100 µM | > 100 µM | > 100 µM | > 100 µM | > 100 µM | > 100 µM | – | – | – | – | – | – | – | – | – | –
16 | Oc1c(Br)cc2c(c1Br)-c1c(c(O)c3c4c1=NCCC=4C=N3)NCC2 | 8.47 µM | – | – | 22.2 µM | 42.2 µM | 29.3 µM | 46.1 µM | 23.2 µM | 29.8 µM | – | – | – | – | – | – | – | – | – | –
17 | N#C[S-].[La+3].c1ccc(-c2ccccn2)nc1.c1ccc(-c2ccccn2)nc1.c1ccc(-c2ccccn2)nc1 | > 100 µM | – | – | – | 60.8 µM | > 100 µM | > 100 µM | – | – | – | 64600 nM | – | 12.9 µM | 19.2 µM | 22 µM | – | – | – | –
18 | O=c1cc(-c2cccc(OC(F)(F)F)c2)[nH]c2ccc(N3CCCC3)cc12 | 0.000234 µM | 0.177 µM | < 0.0001 µM | > 100 µM | > 100 µM | 55.9 µM | > 100 µM | 19.1 µM | – | – | – | 38.5 nM | – | – | 0.0493 µM | – | – | – | –
19 | O=C(C[N+]12CN3CN(CN(C3)C1)C2)c1ccc(-c2ccccc2)cc1 | 78.6 µM | 40 µM | > 100 µM | – | > 100 µM | 45.1 µM | 44.9 µM | 39.4 µM | – | 42.8 µM | – | – | – | – | – | – | – | – | –
